This series can be described thus: Phase behavior and solubility of lipid in dense CO2 / threshold pressure for precipitation. The format is physicochemical. From the text:
Prior to liposome or niosome formation, the phase behavior and solubility of the chosen lipid in dense CO2 were investigated to verify the suitability of the lipid for dense gas processing and, in particular LPLTVs processing.
Knowledge of the threshold pressure for precipitation of lipid from solution is also a key factor for design of the LPLTVs process in order to determine the maximum pressure for the technique so that yield is enhanced and loss of lipid in the expansion chamber minimized. The solid state of 1,2 distearoyl-sn-glycero-3-phosphocholine (DSPC) was maintained when the lipid was exposed to CO2 below 350 bar at 50° C. and 150 bar at 70° C. The solubility of DSPC in pure CO2 at 50° C. and pressures up to 280 bar was considered negligible. […] Use of higher pressures or larger amounts of organic solvent are undesirable, thus the results of the solubility study are in agreement with the literature in concluding that effects arising from poor solubility of lipids in dense CO2 are not easily overcome.
In prior art, at 50° C. and 250 bar, DSPC required the addition of 4.8% v/v ethanol as well as the use of a recycling system for homogeneous dissolution of the lipid in CO2. In the current embodiment, the use of the LPLTVs process eliminates the current limitations of dense gas techniques associated with solubilizing lipids using a supercritical fluid and simply utilizes a dense gas as an aerosolization aid. The threshold pressure for the precipitation of DSPC from a 10 mg/mL ethanol solution at 22° C. was 55 bar.
Precipitation was first observed at 58, 55, and 56 bar for the 5, 10, and 20 mg/mL solutions of DSPC and cholesterol (70:30 lipid to cholesterol weight ratio) in ethanol at 22° C., respectively. Therefore it can be seen that cholesterol had negligible effect on the threshold pressure. […] A faster pressurization rate is preferable for the embodiments LPLTVs process in order to minimize the time requirement for each experiment. During this experiment, noticeable expansion only started to occur after 50 bar was reached. […]

Structures are written as SMILES.

With `CCCCCCCCCCCCCCCCCC(=O)OC[C@H](COP(=O)([O-])OCC[N+](C)(C)C)OC(=O)CCCCCCCCCCCCCCCCC` [DSPC, 1,2 distearoyl-sn-glycero-3-phosphocholine], where the note is “10 mg/mL ethanol solution, 22° C.”, the “threshold pressure for precipitation” value came to 55 bar. Under “5 mol % ethanol, 50° C., 250 bar”, the “effect of ethanol co-solvent on solubility in CO2” value is listed as “did not significantly improve”. For the same compound, the “solubility in pure CO2” value (50° C., pressures up to 280 bar) was “negligible”.

The values above are taken from patent US10322074B2, “Apparatus and method for preparing cosmeceutical ingredients containing epi-dermal delivery mechanisms” (PPP&C INC., priority 2015, dated 2019).
